From paper PMC12737022, “Evaluations of Sex Differences in Dosimetry in Rats Following Perfluorohexanesulfonamide (PFHxSA) Oral Exposure” (Toxics, 2025)

Experiments:
[1] = Ultracentrifugation plasma protein binding assay, human plasma; assay type: in vitro ADME
Experimental: Human and rat plasma were evaluated for plasma protein binding of PFHxSA and PFHxS using ultracentrifugation. Data generated in human plasma were obtained from an earlier study; for this study, data were generated in rat plasma following the same protocol as described by Smeltz et al.. SD rat plasma (pooled, mixed sex) was obtained from a commercial vendor (BioIVT, Westbury, NY, USA). Briefly, PFHxSA and PFHxS were added to the plasma to achieve a final assay concentration of 10 µM. Following a 1 h 37 °C incubation, 1 mL aliquots from each plasma solution were drawn in triplicate and transferred to polycarbonate ultracentrifuge tubes. These samples underwent ultracentrifugation (Beckman OptimaMax; Beckman Coulter Inc., Indianapolis, IN, USA) at 850,000× g for 4 h at 37 °C; after completion, the aqueous fraction (AF) was collected by transferring the supernatant to a new tube. Two sets of samples of the original PFAS-spiked whole plasma were also collected after a 1 h or a 5 h incubation at 37 °C. […]
Intrinsic hepatic clearance (Clint) and fraction unbound in plasma (fup) were calculated from the experimental point estimate data as described in Dobreniecki et al.. […] Renal clearance was calculated using the glomerular filtration rate (a species-dependent constant) and the fraction unbound in blood (fub), estimated by adjusting the experimental fup for blood/plasma partitioning. […]

Sprague Dawley rats [2] = assay: Plasma thyroid hormone quantitation after 5-day oral PFHxSA exposure; assay type: in vivo, rat
Source text: (§1) The plasma and liver samples for this investigation were provided by Mutlu et al.. The study design, including detailed descriptions of animal handling, procedures for dosing, clinical observations, termination, and collection of tissues, is reported elsewhere and is consistent with the ARRIVE guidelines. Briefly, male and female Sprague Dawley (SD) rats (Crl:CD(SD)) (n = 48/sex, 96 total) were purchased from Charles River Laboratory (Raleigh, NC, USA) and allowed to acclimate for ≥5 days before initial dosing. Rats were 8–10 weeks old at the time of exposure. PFHxSA dosing solutions in corn oil were prepared on Day 0 and used over the course of the study. Rats of both sexes (n = 5/sex, dose, and time point, plus eight vehicle controls per sex) were dosed by oral gavage (5 mL/kg body weight) once daily for five days. […] The formulation concentrations decreased from 100 mg/kg/day at half-log10 intervals until the lowest dose level, which was a full log10 interval below the next higher dose, giving eight dose levels (0.01 to 100 mg/kg/day or 0.025 µmol/kg/day to 250 µmol/kg/day) in addition to vehicle controls. Doses were administered in randomized order within ± 1 h on each day of dosing. […] Rats were euthanized 24 h after the last dose. Blood was collected via cardiac puncture with tripotassium ethylene diamine tetraacetic acid (K3EDTA) as an anti-coagulant and centrifuged to collect cell-free plasma. Liver was collected and flash-frozen in liquid nitrogen. Liver, plasma, and dosing formulation samples were frozen at the USEPA Center for Computational Toxicology and Exposure (CCTE), Durham, NC, USA. Tissue samples (plasma and liver, n = 96 each) were stored at ≤−70 °C prior to extraction; dosing formulation samples (n = 9) were stored at −20 °C.
Thyroid hormones (TH) triiodothyronine (T3), reverse triiodothyronine (rT3), and thyroxine (T4) (SI Table S1) were extracted from plasma spiked with ^13C-labeled TH in batches of up to 96 samples, along with an MB, CCV, and LCS for QC. Gibco (Billings, MT, USA) Dulbecco’s Phosphate-Buffered Saline was used as the control matrix. See SI Text S3 for the extraction procedure.
Samples were analyzed as previously described in O’Shaughnessy et al.. Isotope dilution targeted LC/MS/MS was performed using a Sciex (Framingham, MA, USA) 6500+ QTRAP liquid chromatography/linear ion trap mass spectrometer system operated in positive electrospray ionization (ESI) mode with multiple reaction monitoring (MRM) scanning. A Restek (Bellefonte, PA, USA) Raptor Biphenyl column (100 mm × 2.1 mm, 2.6 µm) was used for chromatographic separation with a flow rate of 0.3 mL/min and a 50 °C column temperature. Gradient elution (see SI Table S2) was obtained with 0.1% formic acid in water (H2O) (mobile phase A) and 0.1% formic acid in methanol (MeOH) (mobile phase B). Detection limits for T3, rT3, and T4 were 0.04 ng/mL in plasma. […]
Acceptance criterion for the ICV was a recovery of ± 20% of the nominal concentration of the ICV as quantitated from the calibration curve. Method blank, CCV, and LCS were injected at the beginning of every extraction batch and reinjected after every 30 samples to confirm the validity of the calibration curve and sample quantitation. If fewer than 30 samples were injected, all samples were bracketed by injections of the CCV at the beginning and end of the analysis batch.
Acceptance criteria for the CCV and LCS were ± 30% of nominal concentration. Method blanks were acceptable with PFHxSA signal < 0.5x the LOQ. Samples were injected in order of increasing dose.
Quantitation of PFHxS in liver and plasma was performed using the same QC criteria and extraction methods as PFHxSA, only the internal standard was supplied in the form of a Wellington Laboratories isotopically labeled MPFAC-24ES PFAS mixture containing 13C3-PFHxS. Samples were quantitated against PFHxS matrix-matched calibration curves containing a minimum of 5 points spanning the range […]

Sprague Dawley rats [3] = assay: 5-day repeat dose in vivo study, survival; design: species or system rat; conditions: 0.01 to 100 mg/kg/day oral gavage once daily for five days; both sexes
Source text: as §1, with “Blood was collected via cardiac puncture with tripotassium ethylene diamine tetraacetic acid (K3EDTA) as an anti-coagulant and centrifuged to collect cell-free plasma. Liver was collected and flash-frozen in liquid nitrogen. Liver, plasma, and dosing formulation samples were frozen at the USEPA Center for Computational Toxicology and Exposure (CCTE), Durham, NC, USA. Tissue samples (plasma and liver, n = 96 each) were stored at ≤−70 °C prior to extraction; dosing formulation samples (n = 9) were stored at −20 °C.” left out

Compound: NS(=O)(=O)C(F)(F)C(F)(F)C(F)(F)C(F)(F)C(F)(F)C(F)(F)F [PFHxSA, Perfluorohexanesulfonamide]
- Plasma binding of PFHxSA higher than PFHxS [1]: 2.25 fold
- rT3 in female rat plasma (Sprague Dawley rats [2]; all doses): not detected
- rT3 in male rat plasma (Sprague Dawley rats [2]; detected sporadically): no dose-responsive effect
- Dose with plasma T4 statistically different from controls (Sprague Dawley rats [2]; female rats): 100 mg/kg/day
- Dose with plasma T3 statistically different from controls (Sprague Dawley rats [2]; male and female rats): 100 mg/kg/day
- Dose from which plasma T4 was significantly decreased (Sprague Dawley rats [2]; male rats): 10 mg/kg/day
- Exposures at which changes in THs occur (Sprague Dawley rats [2]; rats): ≥ 10 mg/kg/day
- Survival (Sprague Dawley rats [3]): All rats survived to termination
